Measured values taken from patent US10974293B2, “Device for phyto-ecological monitoring” (priority 2014, dated 2021).
Read-outs that look alike come from different tables or passages of the source.

System: lettuce
Type: in vivo, Lactuca vulgaris
Conditions: arsenic in water 0 to 100 ppm
Text: The arbuscular mycorrhizal spore germination and growth assay (a) consists of a glass slide (22) with a strip of blotter paper (25) of the same width as the glass slide overlain upon it. A semi-circle of gridded, nitrocellulose filter paper is laid on top of the blooter paper. Fungal spores are then placed into one or more segments of the grid, and then covered with a cover slip (not shown). The entire assembly is then held together using non-toxic retainer rings, or alternatively glued together with a non-toxic glue. When the glass slide assay is placed into the slider cartridge (21, FIG. 5) and then into the device of current invention, and deployed in the field and exposed to moisture, the spores produce hyphae, which can be quantitatively observed using optical microscope. The degree of branching of hyphae can be used as outcome of the assay and correlated with contaminants present in the soil and/or water. The small seed germination assay (b) (FIG. 6) also contains a glass slide with two layers of fitted blotter paper strips (25): first layer of fitied blotter paper is the strip without holes, and a second blotter paper strip which has holes of about 2-3 mm in diameter as shown in FIG. 6. Plant seeds (26) are placed in one or more holes, and the assembly is then covered with a standard laboratory cover slip and held together by a non-toxic retaining ring or a glue. […]

SMILES: [AsH3] [arsenic]
- root growth response to arsenic exposure (horizontally grown seedlings): not evident
- root growth response to arsenic exposure (vertically oriented seedlings): hermetic response (enhanced growth at low concentrations of a toxicant)
